Assay results from US10125098B2, “Therapeutic compounds and methods of use thereof” (GENENTECH, INC., priority 2014, dated 2018).
pIC50: −log10 of the molar value. Structures can show the parent of a compound that is named as a salt.

Each compound was assayed against T1, hNav1.7 (Homo sapiens, UniProt Q15858) (assay: Tritiated compound binding (LBA) to membranes from cells expressing hNav1.7 and the β1 subunit, competitive binding). Settings: competitive binding vs 100 pM [3H]compound, 18 h, room temperature, membranes with hNav1.7 and β1 subunit.
T1 construct: expressed in transfected cells
T1 sequence (Q15858 1-1977 isoform Q15858-3): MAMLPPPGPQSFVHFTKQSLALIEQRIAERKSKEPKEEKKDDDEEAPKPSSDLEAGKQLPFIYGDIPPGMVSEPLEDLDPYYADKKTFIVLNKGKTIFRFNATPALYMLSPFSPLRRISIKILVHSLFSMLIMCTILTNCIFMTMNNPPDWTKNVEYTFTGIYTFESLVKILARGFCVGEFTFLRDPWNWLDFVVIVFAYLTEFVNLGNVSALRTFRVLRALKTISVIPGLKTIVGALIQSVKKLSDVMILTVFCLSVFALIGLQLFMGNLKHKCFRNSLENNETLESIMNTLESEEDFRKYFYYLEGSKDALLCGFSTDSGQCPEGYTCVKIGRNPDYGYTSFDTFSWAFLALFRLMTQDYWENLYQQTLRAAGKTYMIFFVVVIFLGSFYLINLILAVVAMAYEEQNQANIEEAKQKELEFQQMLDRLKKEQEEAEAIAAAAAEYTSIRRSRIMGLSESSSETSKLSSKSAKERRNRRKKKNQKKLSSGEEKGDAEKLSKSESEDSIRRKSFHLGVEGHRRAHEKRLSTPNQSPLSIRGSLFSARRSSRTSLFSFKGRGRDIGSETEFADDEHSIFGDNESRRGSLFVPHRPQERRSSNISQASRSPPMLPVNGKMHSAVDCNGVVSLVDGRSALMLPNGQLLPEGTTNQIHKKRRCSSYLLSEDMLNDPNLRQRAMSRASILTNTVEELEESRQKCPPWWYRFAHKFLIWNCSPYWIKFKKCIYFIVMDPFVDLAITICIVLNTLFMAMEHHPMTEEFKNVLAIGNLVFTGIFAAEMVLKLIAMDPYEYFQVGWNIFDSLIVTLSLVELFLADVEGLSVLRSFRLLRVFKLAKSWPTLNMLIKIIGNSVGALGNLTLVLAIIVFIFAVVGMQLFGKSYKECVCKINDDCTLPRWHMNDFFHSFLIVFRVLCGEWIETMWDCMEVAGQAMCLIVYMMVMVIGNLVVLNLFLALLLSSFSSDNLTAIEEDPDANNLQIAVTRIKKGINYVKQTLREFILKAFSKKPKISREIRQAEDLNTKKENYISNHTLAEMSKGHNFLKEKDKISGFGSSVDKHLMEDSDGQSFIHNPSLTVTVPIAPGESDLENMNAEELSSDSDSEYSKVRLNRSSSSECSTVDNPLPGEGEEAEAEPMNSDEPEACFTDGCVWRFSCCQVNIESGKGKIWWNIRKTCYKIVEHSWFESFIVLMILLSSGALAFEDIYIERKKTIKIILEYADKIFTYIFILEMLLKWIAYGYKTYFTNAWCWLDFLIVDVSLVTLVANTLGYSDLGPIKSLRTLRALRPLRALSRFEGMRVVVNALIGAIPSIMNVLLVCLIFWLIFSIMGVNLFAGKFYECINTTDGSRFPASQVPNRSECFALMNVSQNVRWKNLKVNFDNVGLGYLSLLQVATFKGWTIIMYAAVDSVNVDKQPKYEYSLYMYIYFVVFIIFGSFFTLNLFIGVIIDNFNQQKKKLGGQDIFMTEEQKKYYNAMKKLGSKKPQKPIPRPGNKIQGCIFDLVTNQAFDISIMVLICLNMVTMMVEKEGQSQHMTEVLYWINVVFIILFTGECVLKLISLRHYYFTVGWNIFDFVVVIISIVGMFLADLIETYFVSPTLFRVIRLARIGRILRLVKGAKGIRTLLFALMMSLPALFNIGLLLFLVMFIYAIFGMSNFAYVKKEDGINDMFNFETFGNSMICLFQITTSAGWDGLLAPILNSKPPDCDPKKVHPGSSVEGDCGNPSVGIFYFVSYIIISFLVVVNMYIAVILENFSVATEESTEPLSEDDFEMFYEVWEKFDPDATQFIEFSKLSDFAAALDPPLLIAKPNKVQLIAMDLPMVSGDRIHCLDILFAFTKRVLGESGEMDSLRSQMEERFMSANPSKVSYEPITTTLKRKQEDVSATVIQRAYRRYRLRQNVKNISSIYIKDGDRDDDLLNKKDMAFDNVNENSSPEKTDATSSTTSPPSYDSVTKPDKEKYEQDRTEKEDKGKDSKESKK
T1 sequence (Q07699 19-218 partner): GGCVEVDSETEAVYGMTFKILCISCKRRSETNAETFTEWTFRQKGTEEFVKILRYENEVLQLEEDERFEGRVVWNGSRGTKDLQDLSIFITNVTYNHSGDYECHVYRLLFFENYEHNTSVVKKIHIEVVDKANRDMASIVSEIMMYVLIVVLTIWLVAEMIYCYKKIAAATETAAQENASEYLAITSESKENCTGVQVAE
Protocol: Tritiated Compound Binding to Membranes
Isolated from Cells that Heterologously Express hNav1.7 and the β1 Subunit
Preparation of membranes containing recombinantly expressed sodium channels: Frozen recombinant cell pellets were thawed on ice and diluted to 4 times the cell pellet weight with ice cold 50 mM Tris HCl, pH 7.4 buffer. The cell suspensions were homogenized on ice using a motorized glass dounce homogeniser. […] The supernatants were collected and centrifuged at 10000×g at 4° C. for 50 min. The pellets were then re-suspended in 100 mM NaCl, 20 mM Tris HCl, pH 7.4 buffer containing 1% v/v protease inhibitors (Calbiochem) and re-homogenized on ice. The homogenized membranes were then processed through a syringe equipped with a 26 gauge needle. Protein concentrations were determined by Bradford Assay and the membranes were stored at −80° C.
Saturation experiments. A representative compound of formula (I) having a methyl group was tritiated. Three tritiums were incorporated in place of methyl hydrogens to generate [^3H]compound. Binding of this radioligand was performed in 5 mL borosilicate glass test tubes at room temperature. Binding was initiated by adding membranes to increasing concentrations of [^3H]compound in 100 mM NaCl, 20 mM Tris HCl, pH 7.4 buffer containing 0.01% w/v bovine serum albumin (BSA) for 18 h. Non-specific binding was determined in the presence of 1 μM unlabeled compound. After 18 h, the reactants were filtered through GF/C glass fiber filters presoaked in 0.5% w/v polyethylene imine. […] [^3H]compound bound to filters was quantified by liquid scintillation counting.
Binding reactions were performed in 96-well polypropylene plates at room temperature for 18 h. In 360 μL, membranes were incubated with 100 pM [^3H]compound and increasing concentrations of Test Compound. Non-specific binding was defined in the presence of 1 μM unlabeled compound. Reactions were transferred and filtered through 96-well glass fiber/C filter plates presoaked with 0.5% polyethylene imine. […] Bound radioactivity was determined by liquid scintillation counting.
Data Analysis: For saturation experiments, non-specific binding was subtracted from total binding to provide specific binding and these values were recalculated in terms of pmol ligand bound per mg protein. Saturation curves were constructed and dissociation constants were calculated using the single site ligand binding model: Beq=(Bmax*X)/(X+Kd), where Beq is the amount of ligand bound at equilibrium, Bmax is the maximum receptor density, Kd is the dissociation constant for the ligand, and X is the free ligand concentration. For competition studies percent inhibition was determined and IC50 values were calculated using a 4 parameter logistic model (% inhibition=(A+((B−A)/(1+((x/C)^D)))) using XLfit, where A and B are the maximal and minimum inhibition respectively, C is the IC50 concentration and D is the (Hill) slope.

pIC50 | Structure (SMILES)
7.75 | CC1(COc2cc(F)c(C(=O)N3CCC[C@H]3C(=O)O)cc2C2CC2)CN(C(c2ccccc2)c2cc(Cl)cc(Cl)c2)C1 (stereo partly drawn) [Example 28, (2S)-1-(5-cyclopropyl-4-((1-((3,5-dichlorophenyl)(phenyl)methyl)-3-methylazetidin-3-yl)methoxy)-2-fluorobenzoyl)pyrrolidine-2-carboxylic acid trifluoroacetic acid salt]
6.64 | C[C@]1(COc2cc(F)c(C(=O)N3CCC[C@H]3C(=O)O)cc2C2CC2)CC[C@@H](C(F)(F)F)CC1 [Example 42, cis-(S)-1-(5-cyclopropyl-2-fluoro-4-((1-methyl-4-(trifluoromethyl)-cyclohexyl)methoxy)benzoyl)pyrrolidine-2-carboxylic acid]
6.82 | O=C(O)[C@@H]1CCCN1C(=O)c1cc(C2CC2)c(O[C@@H]2CCCN(Cc3ccc(F)cc3Cl)C2)cc1F [Example 38, (S)-1-(4-(((R)-1-(2-chloro-4-fluorobenzyl)piperidin-3-yl)oxy)-5-cyclopropyl-2-fluorobenzoyl)pyrrolidine-2-carboxylic acid trifluoroacetic acid salt]
≤ 5.00 | O=C(O)[C@@H]1CCCN1C(=O)c1cc(Cl)c(OC[C@@H]2C[C@@H]3[C@H](C2)C3(F)F)cc1F [Example 44]
< 5.00 | N#CC1(COc2cc(F)c(C(=O)N3CCC[C@H]3C(=O)O)cc2Cl)C2CC3CC(C2)CC1C3 (stereo partly drawn) [Example 31, (S)-1-(5-chloro-4-(((1S,3S,5S,7S)-2-cyanoadamantan-2-yl)methoxy)-2-fluorobenzoyl)pyrrolidine-2-carboxylic acid]
5.11 | O=C(O)CNC(=O)c1cc(C2CC2)c(OCC23CC4CC(CC(C4)C2)C3)cc1F [Example 35, 2-(4-(adamantan-1-ylmethoxy)-5-cyclopropyl-2-fluorobenzamido) acetic acid]
6.20 | O=C(O)[C@@H]1CCCN1C(=O)c1cc(C2CC2)c(OCC2CCN(Cc3nc(-c4ccccc4Cl)no3)CC2)cc1F [Example 29, (S)-1-(4-((1-((3-(2-chlorophenyl)-1,2,4-oxadiazol-5-yl)methyl)piperidin-4-yl)methoxy)-5-cyclopropyl-2-fluorobenzoyl)pyrrolidine-2-carboxylic acid trifluoroacetic acid salt]
6.19 | O=C(O)[C@@H]1CCCN1C(=O)c1cc(Cl)c(OCC23CC4CC(CC(C4)C2)C3)cc1F [Example 41, (S)-1-(4-(adamantan-1-ylmethoxy)-5-chloro-2-fluorobenzoyl)pyrrolidine-2-carboxylic acid]
< 5.00 | O=C(NC1(C(=O)O)CC1)c1cc(Cl)c(Oc2ccc(OC(F)(F)F)c(Cl)c2)cc1F [Example 36, 1-(5-chloro-4-(3-chloro-4-(trifluoromethoxy)phenoxy)-2-fluorobenzamido)-cyclopropanecarboxylic acid]
7.08 | CC[C@H](C)[C@H](NC(=O)c1cc(C2CC2)c(OCC23CC4CC(CC(C4)C2)C3)cc1F)C(=O)O [Example 43, (2S,3S)-2-(4-(adamantan-1-ylmethoxy)-5-cyclopropyl-2-fluorobenzamido)-3-methylpentanoic acid]
7.66 | O=C(O)[C@@H]1CCCN1C(=O)c1cc(C2CCC2)c(OCC23CC4CC(CC(C4)C2)C3)cc1F [Example 27, (S)-1-(4-(adamantan-1-ylmethoxy)-5-cyclobutyl-2-fluorobenzoyl)pyrrolidine-2-carboxylic acid]
5.81 | N#CC1(COc2cc(F)c(C(=O)N3CCC[C@H]3C(=O)O)cc2C2CC2)C2CC3CC(C2)CC1C3 (stereo partly drawn) [Example 32, (S)-1-(4-(((1S,3S,5S,7S)-2-cyanoadamantan-2-yl)methoxy)-5-cyclopropyl-2-fluorobenzoyl)pyrrolidine-2-carboxylic acid]

The next lines start with the compound.

Structure (SMILES) | pIC50
O=C(O)[C@@H]1CCCN1C(=O)c1cc(C2CC2)c(CN2CCC(Oc3cc(Cl)cc(OC(F)(F)F)c3)CC2)cc1F [Example 20, (S)-1-(4-((4-(3-chloro-5-(trifluoromethoxy)phenoxy)piperidin-1-yl)methyl)-5-cyclopropyl-2-fluorobenzoyl)pyrrolidine-2-carboxylic acid trifluoroacetic acid salt] | 6.26
O=C(O)[C@@H]1CCCN1C(=O)c1cc(C2CC2)c(OCC2CCN(C(c3ccccc3)c3cc(Cl)cc(Cl)c3)CC2)cc1F (stereo partly drawn) [Example 26, (2S)-1-(5-cyclopropyl-4-((1-((3,5-dichlorophenyl)(phenyl)methyl)piperidin-4-yl)methoxy)-2-fluorobenzoyl)pyrrolidine-2-carboxylic acid trifluoroacetic acid salt] | 7.74
C[C@@H](Oc1ccc(Cl)c(Cl)c1)c1cc(F)c(C(=O)N2CCC[C@H]2C(=O)O)cc1C1CC1 [Example 14, (S)-1-(5-cyclopropyl-4-((R)-1-(3,4-dichlorophenoxy)ethyl)-2-fluorobenzoyl)pyrrolidine-2-carboxylic acid] | 5.63
CC1(C)CCCC(COc2cc(F)c(C(=O)N3CCC[C@H]3C(=O)O)cc2C2CC2)C1 (stereo partly drawn) [Example 16, (2S)-1-(5-cyclopropyl-4-((3,3-dimethylcyclohexyl)methoxy)-2-fluorobenzoyl)pyrrolidine-2-carboxylic acid] | 7.40
O=C(O)[C@@H]1CCCN1C(=O)c1cc(C2CC2)c(CN2CCO[C@H](Cc3cc(Cl)cc(Cl)c3)C2)cc1F [Example 5, (S)-1-(5-cyclopropyl-4-(((R)-2-(3,5-dichlorobenzyl)morpholino)methyl)-2-fluorobenzoyl)pyrrolidine-2-carboxylic acid trifluoroacetic acid salt] | 6.33
COC[C@H](NC(=O)c1cc(C2CC2)c(OCC23CC4CC(CC(C4)C2)C3)cc1F)C(=O)O [Example 10, (S)-2-(4-(adamantan-1-ylmethoxy)-5-cyclopropyl-2-fluorobenzamido)-3-methoxypropanoic acid] | 6.17
CC(C)(NC(=O)c1cc(C2CC2)c(OCC23CC4CC(CC(C4)C2)C3)cc1F)C(=O)O [Example 8, 2-(4-(adamantan-1-ylmethoxy)-5-cyclopropyl-2-fluorobenzamido)-2-methylpropanoic acid] | 5.77
CC(C)c1cc(C(=O)N2CCC[C@H]2C(=O)O)c(F)cc1OCC12CC3CC(CC(C3)C1)C2 [Example 17, (S)-1-(4-(adamantan-1-ylmethoxy)-2-fluoro-5-isopropylbenzoyl)pyrrolidine-2-carboxylic acid] | 7.06
O=C(O)[C@H]1CCCN1C(=O)c1cc(C2CC2)c(OCC23CC4CC(CC(C4)C2)C3)cc1F [Example 2, (R)-1-(4-(adamantan-1-ylmethoxy)-5-cyclopropyl-2-fluorobenzoyl)pyrrolidine-2-carboxylic acid] | 6.37
CC1(COc2cc(F)c(C(=O)N3CCC[C@H]3C(=O)O)cc2C2CC2)CN(c2cc(C(F)(F)F)c(Cl)cn2)C1 [Example 21, (S)-1-(4-((1-(5-chloro-4-(trifluoromethyl)pyridin-2-yl)-3-methylazetidin-3-yl)methoxy)-5-cyclopropyl-2-fluorobenzoyl)pyrrolidine-2-carboxylic acid trifluoroacetic acid salt] | 6.44
O=C(O)[C@@H]1CCCN1C(=O)c1cc(C2CC2)c(OCC23CC4(F)CC(F)(CC(F)(C4)C2)C3)cc1F [Example 4, (5)-1-(5-cyclopropyl-2-fluoro-4-((3,5,7-trifluoroadamantan-1-yl)methoxy)benzoyl)pyrrolidine-2-carboxylic acid] | 6.09
